Several values for one entry are separate records, joined by “and”; a condition that tells them apart may be missing. Identical values can stand only once.
Legend:
[1] = ultraviolet-induced erythema test, compound administered 8 or 22 hours prior to exposure; type: in vivo, guinea pig; conditions: 0.5 mg./kg.; for Score 0.5 hours after exposure to ultraviolet: 0.5 h reading; for Score 1.0 hours after exposure to ultraviolet: 1.0 h reading; for Score 1.5 hours after exposure to ultraviolet: 1.5 h reading; for Score 2.0 hours after exposure to ultraviolet: 2.0 h reading; for Score 2.5 hours after exposure to ultraviolet: 2.5 h reading; for Score 3.0 hours after exposure to ultraviolet: 3.0 h reading
Procedure: The compounds of the present invention were evaluated for anti-inflammatoryactivity by the ultraviolet-induced erythema blocking test. The test procedures were a modification of the Winder method (Winder, C. V.; Wax, J.; Burr, V.; Been, M.; and Posiere, C. E.: A Study of Pharmacological Influences on Ultraviolet Erythema in Guinea Pigs. Arch. Int. Pharmacodyn. 116: 261, 1958). Male albino guinea pigs weighing 240-300 gm. were used. The hair on the back was clipped and chemically depilated 15-18 hours before each experiment. The animals were fasted overnight, and on the day of the experiment, were randomized and placed in clear plastic partitioned holders 10×20 cm. wide and 15 cm. high.
The compounds to be tested were suspended in 1% methyl cellulose in water, utilizing a tissue homogenizer. The suspensions were administered orally in a volume of 2.0 ml./kg. of body weight. Control animals received an equal amount of the vehicle.
The source of ultraviolet light was a Hanovia lamp (Kromayer-Model 10). A notebook reinforcement ring was placed upon the lens of the lamp to provide an area of contrast for grading purposes. The lens was then placed in contact with the skin of the guinea pig's back. Exposure time to UV was for a period of 4 seconds. Beginning one hour after exposure and thereafter at half-hour intervals for another 11/2 hours, the degree of resulting erythema was graded by an arbitrary scoring system based upon the degree of contrast and redness formed. Anti-inflammatory agents delay the development of the erythema and have their greatest effect at the initial grading periods. The scores were, therefore, weighted by factors of 4, 3, 2, and 1 at the 1.0, 1.5, 2.0, and 2.5 hour scoring times, respectively. The erythema was graded as follows:
Total scores from each treatment group of four guinea pigs were compared to the scores of the control group. The percent inhibition was calculated as follows: [formula] In the case of compounds showing inhibition, retesting was carried out at a plurality of doses to enable calculation of an ED50 for each such compound. "ED50 " designates that dose which provides 50% inhibition. Calculation of the ED50 was either by a standard linear regression method or by estimation from a dose-response curve of three or more points. The compounds so tested and their ED50 s were as follows:
(4-(2-Fluorophenyl)phenyl)acetylene was evaluated again by the procedures of Examples 29-52, except that the compound was administered 8 or 22 hours prior to exposure to ultraviolet light. The dose was uniformly 0.5 mg./kg. Readings were made at half-hour intervals beginning at one-half hour after exposure and ending at three and one-half hours after exposure. Scores were not weighted, and results were recorded only as percent inhibition.

[2] = analgesic activity, acetic acid-induced writhing; type: in vivo, mouse (albino male); conditions: mouse, p.o., dose reducing writhing frequency by 50%; 30, 90, 180 minutes after administration
Procedure: Representative compounds were also evaluated for analgesic activity. The evaluation was conducted by using acetic acid-induced writhing in mice as the pain model. Clinically effective analgesis are effective when tested in this model: see Koster et al., "Acetic Acid for Analgesic Screening," 18 Fed. Proc. 412 (1959).
In a method similar to that reported by Koster et al., standard strain albino male mice weighing 20-22 grams were fasted overnight. The respective compound or vehicle (as control) was administered by gastric lavage (p.o.). Each compound was administered in an aqueous suspension of 1% methylcellulose in water. […] At 30, 90, and 180 minutes after administration, writhing was induced by the intraperitoneal administration of 55 mg./kg. of acetic acid (0.55%). Each treatment group consisted of 5 mice and separate groups were examined at each observation time. The total number of writhes for the treatment group were counted in a 10-minute observation period starting 5 minutes after the acetic acid administration. The treatment totals were compared to controls and a percent inhibition calculated as follows: [formula] […] An ED50, which represented the dose that would reduce the writhing frequency by 50%, was estimated from a dose-reponse curve of three or more points. A dose range was reported if only two points were availale for the dose response curve and they bracketed the 50% level. If data was available at 100 mg./kg., only, then the estimated ED50 was reported simply as less than 100 (<100).

[3] = adjuvant-induced arthritis test (paw volume); type: in vivo, rat (male albino); conditions: rat, oral

C#Cc1ccc(-c2ccccc2F)cc1 [(4-(2-fluorophenyl)phenyl)acetylene]
% Erythema Inhibition ([1]; 8 hours prior to exposure): 71% | Score 0.5 hours after exposure to ultraviolet ([1]; 8 hours prior to exposure): 0 | Score 1.0 hours after exposure to ultraviolet ([1]; 8 hours prior to exposure): 0 | Score 1.5 hours after exposure to ultraviolet ([1]; 8 hours prior to exposure): 3 | Score 2.0 hours after exposure to ultraviolet ([1]; 8 hours prior to exposure): 6 | Score 2.5 hours after exposure to ultraviolet ([1]; 8 hours prior to exposure): 6 | Score 3.0 hours after exposure to ultraviolet ([1]; 8 hours prior to exposure): 15 | Total Score ([1]; 8 hours prior to exposure, control 104): 30 | % Erythema Inhibition ([1]; 22 hours prior to exposure): 41% | Score 0.5 hours after exposure to ultraviolet ([1]; 22 hours prior to exposure): 3 | Score 1.0 hours after exposure to ultraviolet ([1]; 22 hours prior to exposure): 4 | Score 1.5 hours after exposure to ultraviolet ([1]; 22 hours prior to exposure): 8 | Score 2.0 hours after exposure to ultraviolet ([1]; 22 hours prior to exposure): 14 | Score 2.5 hours after exposure to ultraviolet ([1]; 22 hours prior to exposure): 17 | Score 3.0 hours after exposure to ultraviolet ([1]; 22 hours prior to exposure): 17 | Total Score ([1]; 22 hours prior to exposure, control 107): 63 | Estimated ED50 [2]: 20 mg/kg | Percent Inhibition of Volume Increase, Day 7 ([3]; dose 1 (unit not given)): 27% and 22% | Percent Inhibition of Volume Increase, Day 7 ([3]; dose 3 (unit not given)): 35% and 29% | Percent Inhibition of Volume Increase, Day 7 ([3]; dose 10 (unit not given)): 30% and 23% | Percent Inhibition of Volume Increase, Day 14 ([3]; dose 10 (unit not given), Day 14): 5% and 0%
